The results in this text go back to patent publication EP4722219A1 (Gan & Lee Pharmaceuticals Co., Ltd., priority 2023, dated 2024).

Common to all, as to format: cell-based
The subject of one assay is T-47D cells. The assay is described as follows: Inhibition of cell proliferation in T-47D cells (CCK-8). As to conditions: 6 days treatment, CCK-8 cell viability. On the procedure: Test Example 2 Inhibitory effect of PROTAC compounds provided by the present invention on cell proliferation in T-47D cells
The complete culture medium required for T-47D cells is 1640 (ATCC, Product number: A10491-01) basal culture medium containing 10% fetal bovine serum. T-47D cells were seeded in 96-well plates at a density of 3,000 cells/well, and different concentrations of PROTAC compounds 1-55 provided in the examples of the present invention and positive control sample ARV-471 (source: Inokai) were prepared to treat the cells and incubated at 37 °C, 5% CO2 cell culture incubator for 6 days. According to the manufacturer's instructions, cell viability was detected using a CCK-8 kit (Beyotime, Product number: C0040). The IC50 of each compound after treating for 6 days was calculated using GraphPadPrism software based on the inhibition rate. Table 2 Inhibition IC50 value of T-47D cell proliferation by PROTAC compounds provided by the present invention and positive control sample

The subject of the next assay is MCF-7 cells. The assay is described as follows: Inhibition of cell proliferation in MCF-7 cells (CCK-8). Conditions: Homo sapiens, MCF7, 144 h, MCF-7 cell proliferation, 6 days treatment. On the procedure: Test Example 3 Inhibitory effect of PROTAC compounds provided by the present invention on cell proliferation in MCF-7 cells
The complete culture medium required for MCF-7 cells (source ATCC) is DMEM (gibco, Product number: 11995-065) basal culture medium containing 10% fetal bovine serum. MCF-7 cells were seeded in 96-well plates at a density of 800 cells/well, and different concentrations of PROTAC compounds 1-55 provided in the examples of the present invention and positive control sample ARV-471 (source: Inokai) were prepared to treat the cells and incubated at 37 °C, 5% CO2 cell culture incubator for 6 days. According to the manufacturer's instructions, cell viability was detected using a CCK-8 kit (Beyotime, Product number: C0040). The IC50 of each PROTAC compound after treating for 6 days was calculated using GraphPadPrism software based on the inhibition rate. Table 3 Inhibition IC50 value of MCF-7 cell proliferation by PROTAC compounds of the present invention and positive control sample

Assay [1] has as its target T1, AR protein (Homo sapiens, UniProt P10275, T878A).
T1 construct: host or cells: LNCaP FGC
T1 sequence (P10275 1-920 T878A): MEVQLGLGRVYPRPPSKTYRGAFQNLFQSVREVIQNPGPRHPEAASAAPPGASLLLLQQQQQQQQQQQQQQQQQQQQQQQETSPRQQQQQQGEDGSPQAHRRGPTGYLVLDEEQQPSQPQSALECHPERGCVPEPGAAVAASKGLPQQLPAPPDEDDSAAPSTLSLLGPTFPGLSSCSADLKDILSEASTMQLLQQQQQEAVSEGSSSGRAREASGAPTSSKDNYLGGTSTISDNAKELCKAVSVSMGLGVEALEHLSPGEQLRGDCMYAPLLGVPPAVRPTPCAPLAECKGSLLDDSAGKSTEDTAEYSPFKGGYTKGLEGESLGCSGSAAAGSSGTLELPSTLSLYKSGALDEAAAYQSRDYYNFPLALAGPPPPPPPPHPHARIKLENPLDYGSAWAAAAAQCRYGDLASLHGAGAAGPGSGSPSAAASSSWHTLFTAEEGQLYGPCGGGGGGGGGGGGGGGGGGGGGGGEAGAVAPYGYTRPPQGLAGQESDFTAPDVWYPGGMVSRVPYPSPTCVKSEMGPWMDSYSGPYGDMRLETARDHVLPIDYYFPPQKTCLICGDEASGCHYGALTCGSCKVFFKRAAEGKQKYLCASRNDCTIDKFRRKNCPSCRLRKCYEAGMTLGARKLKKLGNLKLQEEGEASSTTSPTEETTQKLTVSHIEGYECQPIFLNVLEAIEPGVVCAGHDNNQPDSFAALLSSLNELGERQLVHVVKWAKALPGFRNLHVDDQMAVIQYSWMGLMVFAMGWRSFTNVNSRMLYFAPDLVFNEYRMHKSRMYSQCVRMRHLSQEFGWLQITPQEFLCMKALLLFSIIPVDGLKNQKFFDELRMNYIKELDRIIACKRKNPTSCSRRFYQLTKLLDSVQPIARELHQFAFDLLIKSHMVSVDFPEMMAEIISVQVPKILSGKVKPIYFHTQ
The assay is described as follows: AR protein degradation in LNCaP cells (Western blot). Conditions: 8 hours. As to the method: At the same time, the corresponding solvent control was set and cultured for 8 hours. After 8 hours of culture, the culture medium was removed, the cells were washed with PBS, and RIPA lysis buffer containing 1% Protease Inhibitor Cocktail was added. After lysis and centrifugation, the total protein extract was obtained, and the protein concentration in the extract was detected by BCA method. Protein electrophoresis was performed using SDS-PAGE, and then the protein was transferred to a PVDF (Millipore Sigma catalog number PSRP010R5) membrane at a constant voltage of 100V for 60 minutes. The PVDF membrane was placed in a 5% milk powder 1 ×TBST solution and blocked at room temperature for 1 hour. […] The primary antibody solution was discarded and the PVDF membrane was washed with 1×TBST for 5 minutes each time, for three times. […] The secondary antibody solution was discarded and the PVDF membrane was washed with 1 ×TBST for 5 minutes each time, for three times. A dual-color infrared laser imaging system (Licor catalog number Odyssey CLX) was used for Western membrane imaging. The Image Studio software was used to analyze the grayscale of the bands. GAPDH protein bands were also detected for each sample as the reference. The AR protein degradation rate of the compound and the positive control sample was calculated based on the grayscale of the protein bands.

Assay [2] addresses T2, AR protein (Homo sapiens, UniProt P10275).
T2 construct: host or cells: VCaP
T2 sequence (P10275 1-920): T1 sequence (P10275 1-920 T878A) with A878T
The experiment in a line: AR protein degradation in VCaP cells (Western blot). Conditions: 8h. As to the method: The degradation activity of the compounds disclosed in the present invention on AR protein in VCaP cells (cell source: ATCC)
The AR-positive human prostate cancer cells VCaP cultured in DMEM (GiBco catalog number 11995-065) containing 10% FBS (Hyclone catalog number SH30406.05) was inoculated in a six-well microplate (Thermo catalog number 140675) at a concentration of 3×10^5 cells/ well. After being cultured overnight in a carbon dioxide incubator (ESCO), the prepared compound of the present invention and the positive control sample ARV-766 (Annaiji) solution of different concentrations were added at a volume of 1 µL/well to make the final concentrations of the compound and the positive control sample reach 5nM and 0.5nM, respectively. At the same time, the corresponding solvent control was set and cultured for 8h. After 8h of culture, the culture medium was removed, and the cells were washed with PBS. RIPA lysis buffer containing 1% Protease Inhibitor Cocktail was added. After lysis and centrifugation, a total protein extract was obtained, and the protein concentration in the extract was detected by BCA method. Protein electrophoresis was performed using SDS-PAGE, and then the protein was transferred to a PVDF (Millipore Sigma catalog number PSRP010R5) membrane at a constant voltage of 100V for 60min. The PVDF membrane was placed in a 5% milk powder 1×TBST solution and blocked at room temperature for 1h. The primary antibody solution (Anti-Androgen receptor, Cell Signaling Technology catalog number: 5153S; 1:2000 dilution) was prepared and was incubated at 4°C overnight. The primary antibody solution was discarded and the PVDF membrane was washed with 1×TBST for 5 minutes each time, for three times. The secondary antibody solution (Thermo catalog number SA5-35571; 1:7500 dilution) was prepared and was incubated at room temperature for 1 hour. The secondary antibody solution was discarded and the PVDF membrane was washed with 1×TBST for 5 minutes each time, for three times. A dual-color infrared laser imaging system (Licor catalog number Odyssey CLX) was used for Western membrane imaging. Image Studio software was used to analyze the grayscale of the bands. GAPDH protein bands were also detected for each sample as the reference. The AR protein degradation rate of the compound and the positive control sample was calculated based on the grayscale of the protein bands.
Table 7 Degradation rate of AR protein in VCaP cells by the compounds disclosed in the present invention
(In general: A western blot detects proteins with antibodies after separation by electrophoresis.)

Numbering of substitutions follows the chain as printed.

Regarding `Cn1c(=O)n(C2CCC(=O)NC2=O)c2ccc3c(c21)OCC31CCN(CC2CC(OC3CCN(c4ccc([C@@H]5c6ccc(O)cc6CC[C@@H]5c5ccccc5)cc4)CC3)C2)CC1` (stereo partly drawn) [ER-P-80, 3-(1'-(((1S,3s)-3-((1-(4-((1R,2S)-6-hydroxy-2-phenyl-1,2,3,4-tetrahydronaphthalen-1-yl)phenyl)piperidin-4-yl)oxy)cyclobutyl)methyl)-1-methyl-2-oxo-1,2-dihydro-3H,7H-spiro[benzofuro[6,7-d]imidazole-6,4'-piperidin]-3-yl)piperidine-2,6-dione], in the assay with T-47D cells, the IC50 (usually the concentration at which inhibition is half-maximal) was found to be 0.9 nM.

`Cn1c(=O)n(C2CCC(=O)NC2=O)c2cc3c(cc21)C1(CCN(C(=O)CN2CCC4(CCN(c5ccc([C@@H]6c7ccc(O)cc7CC[C@@H]6c6ccccc6)cc5)CC4)C2)CC1)CO3` (stereo partly drawn) [ER-P-69, 3-(1'-(2-(8-(4-((1R,2S)-6-hydroxy-2-phenyl-1,2,3,4-tetrahydronaphthalen-1-yl)phenyl)-2,8-diazaspiro[4.5]decan-2-yl)acetyl)-1-methyl-2-oxo-1,2-dihydro-3H,6H-spiro[benzofuro[5,6-d]imidazole-7,4'-piperidin]-3-yl)piperidine-2,6-dione]: the IC50 in the assay with T-47D cells (Homo sapiens, T47D, 144 h) came to 0.28 nM; in the assay with MCF-7 cells it was 1.43 nM.

With `CN(CC(=O)N1CCC2(CC1)CCC1(CC2)COc2c1ccc1c2CN(C2CCC(=O)NC2=O)C1=O)C1CCC2(CC1)CN(c1ccc([C@@H]3c4ccc(O)cc4CC[C@@H]3c3ccccc3)cc1)C2` (stereo partly drawn) [ER-P-71, 3-(1"-(N-(2-(4-((1R,2S)-6-hydroxy-2-phenyl-1,2,3,4-tetrahydronaphthalen-1-yl)phenyl)-2-azaspiro[3.5]nonan-7-yl)-N-methylglycyl)-6-oxo-6,8-dihydro-2H,7H-dipyridole[furo[2,3-e]isoindole-3,1'-cyclohexane-4',4"-piperidin]-7-yl)piperidine-2,6-dione], the IC50 stood at 8.54 nM with T-47D cells (Homo sapiens, T47D, 144 h) and 2020 nM with MCF-7 cells.

As for `COc1cc(O[C@H]2C(C)(C)[C@H](NC(=O)c3ccc(N4CCC(CN5CCC6(CC5)COc5c6ccc6c5n(C)c(=O)n6C5CCC(=O)NC5=O)CC4)nn3)C2(C)C)ccc1C#N` (relative stereo) [A-P-27], the “Degradation of AR protein in LNCaP cells, 10 nM (%)” value on AR protein [1] (10 nM) turned out to be 43%. For the same compound, the “Degradation of AR protein in LNCaP cells, 100 nM (%)” value at AR protein [1] (100 nM) turned out to be 43%. The entries for the “Degradation rate of AR protein in VCaP cells” value at AR protein [2] (0.5 nM) and on AR protein [2] (5 nM) were 78% and 80%, respectively.

`COc1cc(O[C@H]2CC[C@H](NC(=O)c3ccc(N4CCC5(CC4)CC(N4CCC6(CC4)COc4cc7c(cc46)n(C)c(=O)n7C4CCC(=O)NC4=O)C5)nn3)CC2)ccc1C#N` (stereo partly drawn) [A-P-11] returned a percent AR protein degradation at a fixed concentration at 0.01 µM on AR protein [1] (10 nM) of 76%. The percent AR protein degradation at a fixed concentration at 0.1 µM on AR protein [1] (100 nM) was determined as 32%.

In the case of `O=C1CCC(Nc2ccc3c(c2)OCC32CCN(CC3CC(OC4CCN(c5ccc([C@@H]6c7ccc(O)cc7CC[C@@H]6c6ccccc6)cc5)CC4)C3)CC2)C(=O)N1` (stereo partly drawn) [ER-P-92, 3-((1'-(((1S,3s)-3-((1-(4-((1R,2S)-6-hydroxy-2-phenyl-1,2,3,4-tetrahydronaphthalen-1-yl)phenyl)piperidin-4-yl)oxy)cyclobutyl)methyl)-2H-spiro[benzofuran-3,4'-piperidin]-6-yl)amino)piperidine-2,6-dione], in the assay with T-47D cells, the IC50 was determined as 4.56 nM.
